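Exposure lasted 48 hours, with cells grown in 96-well plates and compounds tested at five concentrations. GI50 is the concentration that inhibits growth by half.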 Active and inactive are the calls of the source. No stated cut-off is given here; in the data, active = GI50 up to about 1.1 µM and inactive = higher.
What was measured:
Assay in all cases: DTP human tumour cell line panel, 48 h
HOP-62 = test system: HOP-62
SN12C = test system: SN12C
T47D = test system: T47D
A549 = test system: A549
CAKI-1 = test system: CAKI-1
Malme-3M = test system: Malme-3M
SF-268 = test system: SF-268
NCI/ADR-RES = test system: NCI/ADR-RES
OVCAR-8 = test system: OVCAR-8
DU-145 = test system: DU-145
SK-OV-3 = test system: SK-OV-3
CCRF-CEM = test system: CCRF-CEM
TK-10 = test system: TK-10
UO-31 = test system: UO-31
IGROV-1 = test system: IGROV-1
HL-60 = test system: HL-60
MDA-MB-231 = test system: MDA-MB-231
Hs-578T = test system: Hs-578T
MDA-MB-435 = test system: MDA-MB-435
NCI-H226 = test system: NCI-H226
HT-29 = test system: HT-29
SR = test system: SR
SNB-19 = test system: SNB-19
SF-539 = test system: SF-539
SW-620 = test system: SW-620
RPMI-8226 = test system: RPMI-8226
786-0 = test system: 786-0
UACC-62 = test system: UACC-62
KM12 = test system: KM12
SK-MEL-28 = test system: SK-MEL-28
RXF 393 = test system: RXF 393
PC-3 = test system: PC-3
LOX IMVI = test system: LOX IMVI
HOP-92 = test system: HOP-92
NCI-H460 = test system: NCI-H460
U-251 = test system: U-251
NCI-H23 = test system: NCI-H23
MDA-N = test system: MDA-N
SK-MEL-5 = test system: SK-MEL-5
HCT-15 = test system: HCT-15
OVCAR-5 = test system: OVCAR-5
MOLT-4 = test system: MOLT-4
MCF7 = test system: MCF7
SNB-75 = test system: SNB-75
BT-549 = test system: BT-549
OVCAR-4 = test system: OVCAR-4
UACC-257 = test system: UACC-257
EKVX = test system: EKVX
HCT-116 = test system: HCT-116
ACHN = test system: ACHN
HCC 2998 = test system: HCC 2998
SF-295 = test system: SF-295
K562 = test system: K562
SK-MEL-2 = test system: SK-MEL-2
OVCAR-3 = test system: OVCAR-3
NCI-H522 = test system: NCI-H522
M14 = test system: M14
COLO 205 = test system: COLO 205

`COCOc1c(C(O[Si](C)(C)C(C)(C)C)c2cnc(Sc3ccccc3)n2C)ccc(OC)c1OC` (stereo not drawn) was tested, and the GI50 (HOP-62) was 1660 nM (inactive), the GI50 (SN12C) was 1780 nM (inactive) and the GI50 (T47D) was 256 nM (active). The GI50 (A549) was 1880 nM (inactive), the GI50 (CAKI-1) was 3030 nM (inactive) and the GI50 (Malme-3M) was 2450 nM (inactive). The GI50 (SF-268) was 1640 nM (inactive), the GI50 (NCI/ADR-RES) was 1350 nM (inactive) and the GI50 (OVCAR-8) was 1430 nM (inactive). For the same compound, the GI50 (DU-145) was > 100000 nM (inactive), the GI50 (SK-OV-3) was 2050 nM (inactive) and the GI50 (CCRF-CEM) was 2840 nM (inactive). For the same compound, the GI50 (TK-10) was 4280 nM (inactive), the GI50 (UO-31) was 1830 nM (inactive) and the GI50 (IGROV-1) was 1970 nM (inactive). For the same compound, the GI50 (HL-60) was 1870 nM (inactive), the GI50 (MDA-MB-231) was 1660 nM (inactive) and the GI50 (Hs-578T) was 2310 nM (inactive). For the same compound, the GI50 (MDA-MB-435) was 1750 nM (inactive), the GI50 (NCI-H226) was 1850 nM (inactive) and the GI50 (HT-29) was 1930 nM (inactive). The GI50 (SR) was 2470 nM (inactive), the GI50 (SNB-19) was 2140 nM (inactive) and the GI50 (SF-539) was 1970 nM (inactive). For the same compound, the GI50 (SW-620) was 1930 nM (inactive), the GI50 (RPMI-8226) was 1850 nM (inactive) and the GI50 (786-0) was 1820 nM (inactive). The GI50 (UACC-62) was 1650 nM (inactive), the GI50 (KM12) was 1920 nM (inactive) and the GI50 (SK-MEL-28) was 1840 nM (inactive). For the same compound, the GI50 (RXF 393) was 1360 nM (inactive), the GI50 (PC-3) was 1550 nM (inactive) and the GI50 (LOX IMVI) was 1840 nM (inactive). For the same compound, the GI50 (HOP-92) was 2130 nM (inactive), the GI50 (NCI-H460) was 1530 nM (inactive) and the GI50 (U-251) was 1640 nM (inactive). The GI50 (NCI-H23) was > 100000 nM (inactive), the GI50 (MDA-N) was 1770 nM (inactive) and the GI50 (SK-MEL-5) was 1820 nM (inactive). The GI50 (HCT-15) was 1940 nM, the GI50 (OVCAR-5) was > 100000 nM (inactive) and the GI50 (MOLT-4) was 2540 nM (inactive). For the same compound, the GI50 (MCF7) was 1760 nM (inactive), the GI50 (SNB-75) was 2200 nM (inactive) and the GI50 (BT-549) was 1690 nM (inactive). For the same compound, the GI50 (OVCAR-4) was 3000 nM (inactive), the GI50 (UACC-257) was 2250 nM (inactive) and the GI50 (EKVX) was 2530 nM (inactive). The GI50 (HCT-116) was 1600 nM (inactive), the GI50 (ACHN) was 2420 nM (inactive) and the GI50 (HCC 2998) was 1840 nM (inactive). For the same compound, the GI50 (SF-295) was 2650 nM (inactive), the GI50 (K562) was 2750 nM (inactive) and the GI50 (SK-MEL-2) was 1310 nM (inactive). The GI50 (OVCAR-3) was 1700 nM (inactive) and the GI50 (NCI-H522) was 1620 nM (inactive).

In the case of `COc1ccc(C2NC(N)=C(C#N)C3=C2C(C)CCC3)cc1OC` (stereo not drawn), the GI50 (HOP-62) is reported as 15900 nM (inactive), the GI50 (SN12C) is reported as 44400 nM (inactive) and the GI50 (T47D) is reported as 2960 nM (inactive). For the same compound, the GI50 (CAKI-1) was > 100000 nM (inactive), the GI50 (Malme-3M) was 28600 nM (inactive) and the GI50 (SF-268) was > 100000 nM (inactive). For the same compound, the GI50 (NCI/ADR-RES) was 35200 nM (inactive), the GI50 (OVCAR-8) was 75700 nM (inactive) and the GI50 (DU-145) was > 100000 nM (inactive). The GI50 (SK-OV-3) was 75300 nM (inactive), the GI50 (CCRF-CEM) was 14600 nM (inactive) and the GI50 (TK-10) was 92300 nM (inactive). The GI50 (UO-31) was 4650 nM (inactive), the GI50 (IGROV-1) was 15500 nM (inactive) and the GI50 (M14) was 59200 nM (inactive). The GI50 (HL-60) was 14500 nM (inactive), the GI50 (MDA-MB-231) was 59700 nM (inactive) and the GI50 (Hs-578T) was 74300 nM (inactive). For the same compound, the GI50 (MDA-MB-435) was 63500 nM (inactive), the GI50 (NCI-H226) was > 100000 nM (inactive) and the GI50 (HT-29) was 40000 nM (inactive). The GI50 (SR) was 261 nM (active), the GI50 (SNB-19) was > 100000 nM (inactive) and the GI50 (SF-539) was 35200 nM (inactive). The GI50 (SW-620) was > 100000 nM (inactive), the GI50 (RPMI-8226) was 10200 nM (inactive) and the GI50 (786-0) was 77100 nM (inactive). For the same compound, the GI50 (UACC-62) was 56000 nM (inactive), the GI50 (KM12) was 63500 nM (inactive) and the GI50 (SK-MEL-28) was > 100000 nM (inactive). For the same compound, the GI50 (RXF 393) was > 100000 nM (inactive), the GI50 (PC-3) was 44800 nM (inactive) and the GI50 (LOX IMVI) was 35500 nM (inactive). For the same compound, the GI50 (U-251) was 41800 nM (inactive), the GI50 (NCI-H23) was > 100000 nM (inactive) and the GI50 (MDA-N) was > 100000 nM (inactive). For the same compound, the GI50 (SK-MEL-5) was 24200 nM (inactive), the GI50 (HCT-15) was 44300 nM and the GI50 (OVCAR-5) was > 100000 nM (inactive). The GI50 (MOLT-4) was 2750 nM (inactive), the GI50 (MCF7) was 43200 nM (inactive) and the GI50 (SNB-75) was 1440 nM (inactive). For the same compound, the GI50 (BT-549) was 68200 nM (inactive), the GI50 (COLO 205) was 37300 nM (inactive) and the GI50 (UACC-257) was 43500 nM (inactive). For the same compound, the GI50 (EKVX) was 33400 nM (inactive), the GI50 (HCT-116) was > 100000 nM (inactive) and the GI50 (ACHN) was 32300 nM (inactive). For the same compound, the GI50 (SF-295) was 12300 nM (inactive), the GI50 (K562) was 25600 nM (inactive) and the GI50 (SK-MEL-2) was > 100000 nM (inactive). The GI50 (OVCAR-3) was 31700 nM (inactive).
